{
  "source": "patent US20190270796A1",
  "about": "“THERAPEUTIC AGENT FOR PERIODONTITIS AND COMPOSTION FOR TREATING PERIODONTITIS” (NIHON UNIVERSITY, priority 2016, published 2019)",
  "key": {"[1]": {"test_system": "monkey gingival fibroblasts which extremely decompose collagen gel", "test": "three-dimensional collagen gel culture system with monkey gingival fibroblasts (Experimental Example 4)", "format": "cell-based, Macaca fascicularis", "details": "HGF 50 ng/mL, HGF-neutralizing antibody 20 μg/mL", "from_the_text": "Before clinical application of the therapeutic agent for periodontitis of the present invention to humans, it is necessary to conduct experiments using monkeys. An effect of an HGF-neutralizing antibody on degradation of collagen using gingival fibroblasts derived from a monkey naturally occurred periodontitis was examined using the same three-dimensional collagen gel culture system as in Experimental Example 1. Since it is difficult to culture gingival epithelial cells of monkeys, human gingival epithelial cells were used as gingival epithelial cells. Tissue of a gingiva piece derived from an euthanasia individual of a monkey (Macaca fascicularis, raised in Tsukuba Primate Research Center) naturally occurred periodontitis was cut, and then, the tissue pieces were allowed to stand on the bottom of a cell culture plate. Subsequently, outgrown cells from the tissue pieces were subcultured as a first generation to obtain monkey gingival fibroblasts. The obtained gingival fibroblasts were once cultured in the above-described three-dimensional collagen gel culture system to observe collagen resolution, and gingival fibroblasts which extremely decompose collagen gel (that is, with which collagen gel were degraded and contracted). […]"}, "[2]": {"test_system": "normal gingival fibroblasts", "test": "three-dimensional collagen gel culture system with normal gingival fibroblasts (Experimental Example 1)", "format": "cell-based, human", "details": "day 5 of suspension culture, HGF 25 and 50 ng/mL, HGF-neutralizing antibody 20 μg/mL", "from_the_text": "In addition, gingival fibroblasts with a low resolution of collagen gel (hereinafter, sometimes referred to as “normal gingival fibroblasts”) were used as controls. Gingival fibroblasts with which the contraction of collagen gel having a diameter of 35 mm remained to a diameter of about 10 mm were used as normal gingival fibroblasts.\nIn addition, the same collagen gel as the above-described collagen gel was produced for comparison except that the above-described normal gingival fibroblasts were used instead of the gingival fibroblasts which extremely decompose collagen gel.\nSubsequently, each prepared collagen gel piece was incubated at 37° C. After 24 hours, each collagen gel piece was peeled off from a plate and was suspended (on day 1 of culture). Each test substance (HGF-neutralizing antibody and HGF) having the same concentration as that described above was added to a medium. Subsequently, suspension culture of collagen gel was continued at 37° C., and collagen gel was observed on day 5 after the start of the suspension culture.\nFIGS. 2(a) to 2(h) are photographs of each collagen gel piece on day 5 after the start of the suspension culture. Each mass floating in each well in FIGS. 2(a) to 2(h) is collagen gel. FIGS. 2(a) to 2(d) show results of collagen gel containing gingival fibroblasts which extremely decompose collagen gel. […]"}, "[3]": {"test_system": "gingival fibroblasts which extremely decompose collagen gel, derived from a patient with periodontitis", "test": "three-dimensional collagen gel culture system, collagen degradation (Experimental Example 1)", "format": "cell-based, human", "details": "day 5 of suspension culture; compared to control; HGF 50 ng/mL; HGF-neutralizing antibody 20 μg/mL", "procedure": "First, a three-dimensional collagen gel culture system of gingival fibroblasts previously developed by the present inventors will be described with reference to FIGS. 1(a) to 1(d). In this culture system, it is possible to evaluate the influence of a test substance on degradation of collagen in periodontal tissues in vitro and to obtain results close to in vivo.\nFirst, as shown in FIG. 1(a), gingival fibroblasts derived from a patient with periodontitis and a test substance are added into collagen gel, and the mixture is poured into a petri dish. Subsequently, the mixture is incubated at 37° C. for 30 minutes and the collagen gel is hardened. Subsequently, gingival epithelial cells derived from the patient with periodontitis are seeded on the hardened collagen gel and incubated overnight.\nSubsequently, as shown in FIG. 1(b), the collagen gel is peeled off from the petri dish to make the collagen gel float. At this time, the test substance is also added into a medium in which the collagen gel floats. Subsequently, the suspension culture is continued for 5 days. Meanwhile, the collagen gel is degraded and contracts due to various factors produced by an interaction between the gingival fibroblasts and the gingival epithelial cells. […]\nSubsequently, as shown in FIG. 1(c), the amount of residual collagen is quantitatively determined on day 5 of suspension culture. […]"}, "[4]": {"test_system": "gingival fibroblasts extremely decomposing collagen gel (PAF1, PAF2)", "test": "weight of collagen gel after three-dimensional culture (Experimental Example 3)", "format": "cell-based, human", "details": "HGF 50 ng/mL, HGF-neutralizing antibody 20 μg/mL; for weight of collagen gel: day 5 of suspension culture", "procedure": "Cell matrix type I-A (Nitta Gelatin Inc.), 5×DMEM, a buffer solution for reconstitution (Nitta gelatin) were mixed with each other to prepare a collagen mixed solution. An HGF-neutralizing antibody (model “AB-294-NA”, R&D) was added to this collagen mixed solution so that the final concentration became 20 μg/mL. In addition, a sample containing no test substance (control) and a sample to which HGF (model “100-39”, PeproTech, Inc.) was added so that the final concentrations became 50 ng/mL were prepared for comparison.\nSubsequently, the same gingival fibroblasts, which extremely decompose collagen gel, as in Experimental Example 1 were mixed with these collagen mixed solutions and seeded in a 6-well plate so that the cell density became 2.5×10^5 cells/well. Subsequently, the mixture was incubated at 37° C. for 30 minutes and the collagen gel was hardened. Two kinds of cells (hereinafter, referred to as “PAF1” and “PAF2”) were used as gingival fibroblasts extremely decomposing collagen gel.\nSubsequently, the same gingival epithelial cells as in Experimental Example 1 were dispersed by trypsin treatment, and were then seeded on the above-described collagen gel at 2×10^5 cells/well to form a single layer of the epithelial cells.\nSubsequently, each prepared collagen gel was incubated at 37° C. After 24 hours, each collagen gel piece was peeled off from a plate and was suspended (on day 1 of culture). HGF-neutralizing antibodies having the same concentration as that described above were added to a medium of a test group. Subsequently, suspension culture of collagen gel was continued at 37° C.\nCollagen gel was collected on day 5 after the start of the suspension culture, and the weight thereof was measured. FIGS. 5(a) and 5(b) are photographs of collected collagen gel. […] In FIGS. 5(a) and 5(b), the “control” indicates control collagen gel, “HGF” indicates collagen gel to which HGF is added, and the “HGF-neutralizing antibody” indicates collagen gel to which an HGF-neutralizing antibody is added."}},
  "data": [
    {"substance": "HGF: HGF (model “100-39”, PeproTech, Inc.), hepatocyte growth factor added for comparison", "values": [
      {"measurement": "degradation of collagen (observation of collagen gel)", "setting": "[1]; monkey gingival fibroblasts with human gingival epithelial cells (SAF1, SAF2), day 5 of suspension culture, compared to controls", "result": "promoted"},
      {"measurement": "vacuoles around cells (hematoxylin-eosin staining of thin section of collagen gel)", "setting": "[1]; monkey gingival fibroblasts, SAF1", "result": "a vacuole is formed around the cell"},
      {"measurement": "difference in decomposition of collagen", "setting": "[2]", "result": "no difference"},
      {"measurement": "degradation of collagen (observation of collagen gel)", "setting": "[3]", "result": "clearly accelerated"},
      {"measurement": "weight of collagen gel", "setting": "[4]; PAF1, control 0.013 g", "result": 0.011, "unit": "g"},
      {"measurement": "degradation of collagen gel", "setting": "[4]; PAF1 and PAF2, compared to control collagen gel", "result": "remarkably accelerated"},
      {"measurement": "weight of collagen gel", "setting": "[4]; PAF2, control 0.034 g", "result": 0.028, "unit": "g"}
    ]}
  ]
}
